Measurements published in article PMC8847695 (Frontiers in Chemistry, 2022).

Tests used:
Assay type in all cases: binding
Conditions in all cases: 1 = hit, 0 = no hit
[1] = biological target: T1, CAMK1G (1-320) (Homo sapiens, UniProt Q96NX5); assay: STD-NMR fragment screening, CAMK1G
T1 construct: made in house; host or cells: E. coli BL21 (DE3) pLysS
Protocol: (§1) All fragments were stored at −20°C as solids in argon flushed glass bottles. For NMR screening, fragments were weighed and dissolved in DMSO-d6 to a stock concentration of 300 mM. Mother plates were prepared with a 100 mM concentration. From these plates, daughter plates were prepared with the fragments mixed in the plates to a concentration of 50 mM for each fragment. Daughter plates were opened a maximum of eight times. The plates were argon flushed and sealed with a HT121TS (HTA) and Foil Heat Seal (Biozym).
(§2) For long time measurements, like the protein ^1H NMR spectrum, the buffer exchange was performed twice to reduce residual buffer peaks. All experiments were performed on a Bruker Avance III HDX 700 instrument, equipped with a 5 mm Prodigy TCI cryo-probehead. For every protein, a standard ^1H NMR experiment with 1 k scans and water suppression through presaturation was performed. […] The on-resonance frequency, which was determined from the ^1H NMR spectra of the protein, was between 0.5 and 0.6 ppm; 40 ppm was used as the off-resonance frequency. For an interleaved acquisition of the on- and off-resonance, a pseudo-2D scheme was applied. The saturation was done by Gaussian pulses with a length of 50 ms and 60 dB of attenuation, with an interpulse delay of 1 ms leading to an excitation bandwidth of about 42 Hz. The screening was done with 16 scans of on- and off-resonance scans each, with a 3 s saturation time. The samples contained final concentrations of 20 µM protein, 10% (^V/V) DMSO-d6, and 1 mM of each of the two fragments. A ^1H-NMR experiment was performed for each compound to act as a reference spectrum in the STD experiments. All NMR experiments were carried out at 25°C.
(§3) Fifteen of these compounds contain the same halogen twice. No compound bears mixtures of different halogen atoms. Four proteins (AAK1, CAMK1G, IDO1, and DOT1L) were screened against this HEFLib using STD-NMR. A fragment was considered a hit if the peak intensity in the difference spectrum was three times higher than the local background noise. […] Chemical compatibility and peak complementarity were assured for these mixtures. Samples containing more than two fragments were avoided to minimize the possible target competition and to decrease the risk of fragment interactions. […] The ^1H reference NMR spectrum of the mixture is shown in red for comparison. […] As fragment mixtures can lead to competitive effects between their fragments, it is not advised to use the quantification of peak mixtures for hit ranking.

[2] = biological target: T2, IDO1 (1-435) (Homo sapiens, UniProt P14902); assay: STD-NMR fragment screening, IDO1
T2 construct: His-tag of pET15b with TEV site (thrombin site replaced) (cleaved yes); made in house; host or cells: E. coli Rosetta 2 (DE3) pLysS
T2 sequence (P14902 whole entry, the tested form may be a part): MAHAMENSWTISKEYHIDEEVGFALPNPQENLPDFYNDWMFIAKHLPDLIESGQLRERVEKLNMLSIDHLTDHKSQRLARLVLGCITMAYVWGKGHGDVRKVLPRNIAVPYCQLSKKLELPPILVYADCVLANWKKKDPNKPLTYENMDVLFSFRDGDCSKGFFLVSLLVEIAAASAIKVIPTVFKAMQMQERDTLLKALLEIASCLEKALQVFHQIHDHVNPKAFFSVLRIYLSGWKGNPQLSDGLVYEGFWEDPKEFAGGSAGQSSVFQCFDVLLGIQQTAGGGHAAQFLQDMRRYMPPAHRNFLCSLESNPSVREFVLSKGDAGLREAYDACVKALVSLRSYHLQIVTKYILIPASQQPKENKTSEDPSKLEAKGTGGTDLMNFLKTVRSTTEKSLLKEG
Protocol: as §1, §2, §3

[3] = biological target: T3, DOT1L (1-416) (Homo sapiens, UniProt Q8TEK3); assay: STD-NMR fragment screening, DOT1L
T3 construct: made in house; host or cells: E. coli BL21 (DE3) pLysS
T3 sequence (Q8TEK3 1-416): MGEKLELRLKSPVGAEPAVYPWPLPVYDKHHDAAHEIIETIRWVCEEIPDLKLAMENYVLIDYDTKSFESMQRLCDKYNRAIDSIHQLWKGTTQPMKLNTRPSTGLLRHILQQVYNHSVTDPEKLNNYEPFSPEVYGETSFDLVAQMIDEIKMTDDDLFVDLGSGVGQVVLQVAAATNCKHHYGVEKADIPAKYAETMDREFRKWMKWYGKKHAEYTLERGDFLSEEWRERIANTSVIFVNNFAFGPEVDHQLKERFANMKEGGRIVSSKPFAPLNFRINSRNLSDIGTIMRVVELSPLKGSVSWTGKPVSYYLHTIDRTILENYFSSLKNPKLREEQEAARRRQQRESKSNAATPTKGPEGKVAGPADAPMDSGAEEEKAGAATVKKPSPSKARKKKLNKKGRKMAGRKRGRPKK
Protocol: as §1, §2, §3

[4] = biological target: AAK1 (121-471) (Homo sapiens, UniProt Q2M2I8); assay: STD-NMR fragment screening, AAK1
AAK1 (121-471), sequence (Q2M2I8 46-315 limits assumed): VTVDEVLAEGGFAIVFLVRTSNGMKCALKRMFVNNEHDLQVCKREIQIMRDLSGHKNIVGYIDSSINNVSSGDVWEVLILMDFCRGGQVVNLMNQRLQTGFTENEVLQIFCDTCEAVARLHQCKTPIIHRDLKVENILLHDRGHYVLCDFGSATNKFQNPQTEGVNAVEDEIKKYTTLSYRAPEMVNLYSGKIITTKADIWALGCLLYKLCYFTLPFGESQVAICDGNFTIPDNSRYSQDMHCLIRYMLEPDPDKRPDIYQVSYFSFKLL
Protocol: as §1, §2, §3

T1 sequence (Q96NX5 1-320): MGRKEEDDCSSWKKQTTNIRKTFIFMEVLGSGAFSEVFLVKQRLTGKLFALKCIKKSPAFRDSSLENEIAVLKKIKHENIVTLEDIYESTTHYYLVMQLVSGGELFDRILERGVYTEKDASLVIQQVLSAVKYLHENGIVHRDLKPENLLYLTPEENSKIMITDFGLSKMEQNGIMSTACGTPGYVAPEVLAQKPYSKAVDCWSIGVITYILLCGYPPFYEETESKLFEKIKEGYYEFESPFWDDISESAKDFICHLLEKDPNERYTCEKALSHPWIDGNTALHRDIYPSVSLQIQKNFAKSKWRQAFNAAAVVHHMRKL

CAMK1G (STD-NMR hit flag) [1]	IDO1 (STD-NMR hit flag) [2]	DOT1L (STD-NMR hit flag) [3]	AAK1 (STD-NMR hit flag) [4]	Compound
1	0	0	1	CCn1ncc(Br)c1C(N)=O [Fragment B02291150]
0	0	0	0	Cc1nn(CCN)cc1Cl [Fragment B02291152]
0	0	0	0	Oc1ccc(Cl)cc1/C=C/C12CN3CN(CN(C3)C1)C2 [Fragment B02291153]
0	0	0	0	O=C(O)c1nn(Cn2cccn2)cc1Cl [Fragment B02291154]
0	0	0	0	CCn1ncc(Br)c1CNC [Fragment B02291155]
0	0	0	0	Nc1nn(CC(=O)O)cc1Br [Fragment B02291156]
0	0	0	0	Brc1cccc2c1CNC2 [Fragment B02291212]
0	0	0	0	CS(=O)(=O)c1ccc(Cl)c(S(C)(=O)=O)c1 [Fragment B02291213]
0	0	0	0	Cn1nc(C(F)(F)F)c(CO)c1Cl [Fragment B02291214]
1	1	0	1	Cn1c2nc(Cl)nc-2c(O)n(C)c1=O [Fragment B02291216]
0	0	0	1	Nc1c(Cl)ccc2nonc12 [Fragment B02291217]
0	0	0	0	Cc1c(Cl)c(C(=O)O)nn1C [Fragment B02291218]
1	0	0	1	Nc1ncc(C(F)(F)F)cc1Cl [Fragment B02291219]
0	0	0	0	O=C(O)c1cc(Cl)c[nH]1 [Fragment B02291221]
0	0	0	0	NC(=O)c1cc2c(nc1Cl)CCC2 [Fragment B02291222]
0	0	0	0	CS(=O)(=O)c1ncc(Cl)c(C(=O)O)n1 [Fragment B02291223]
0	0	0	0	Clc1ncccn1 [Fragment B02291224]
0	1	0	0	CCOC(Cn1cc(Cl)cn1)OCC [Fragment B02291225]
0	0	0	0	NC1CCSc2ccc(Cl)cc21 (centres unmarked) [Fragment B02291226]
0	0	0	1	Cc1ccc(C(N)=O)c(Cl)n1 [Fragment B02291227]
